Measured values reported in patent US8101647B2, “Spiro-oxindole compounds and their use as therapeutic agents” (Xenon Pharmaceuticals Inc., priority 2008, dated 2012).

Experiments:
sodium channel = test: Guanidine influx assay; format: cell-based, human or rat; conditions: known cell line that expresses a sodium channel; read-out: IC50 Activity Level
Excerpt: This example describes an in vitro assay for testing and profiling test agents against human or rat sodium channels stably expressed in cells of either an endogenous or recombinant origin. The assay is also useful for determining the IC50 of a sodium channel blocking compound. The assay is based on the guanidine flux assay described by Reddy, N. L., et al., J. Med. Chem. (1998), 41(17):3298-302.
The guanidine influx assay is a radiotracer flux assay used to determine ion flux activity of sodium channels in a high-throughput microplate-based format. The assay uses ^14C-guanidine hydrochloride in combination with various known sodium channel modulators, to assay the potency of test agents. Potency is determined by an IC50 calculation. Selectivity is determined by comparing potency of the compound for the channel of interest to its potency against other sodium channels (also called ‘selectivity profiling’).
Each of the test agents is assayed against cells that express the channels of interest. Voltage gated sodium channels are either TTX sensitive or insensitive. This property is useful when evaluating the activities of a channel of interest when it resides in a mixed population with other sodium channels. The following Table 1 summarizes cell lines useful in screening for a certain channel activity in the presence or absence of TTX.
It is also possible to employ recombinant cells expressing these sodium channels. Cloning and propagation of recombinant cells are known to those skilled in the art (see, for example, Klugbauer, N, et al., EMBO J. (1995), 14(6):1084-90; and Lossin, C., et al., Neuron (2002), 34, pp. 877-884).
Cells expressing the channel of interest are grown according to the supplier or in the case of a recombinant cell in the presence of selective growth media such as G418 (Gibco/Invitrogen). The cells are disassociated from the culture dishes with an enzymatic solution (1×) Trypsin/EDTA (Gibco/Invitrogen) and analyzed for density and viability using haemocytometer (Neubauer). Disassociated cells are washed and resuspended in their culture media then plated into Scintiplates (Beckman Coulter Inc.) (approximately 100,000 cells/well) and incubated at 37° C./5% CO2. for 20-24 hours. After an extensive wash with Low sodium HEPES-buffered saline solution (LNHBSS) (150 mM Choline Chloride, […] (Sigma), 1 mM Calcium Chloride, 5 mM Potassium Chloride, 1 mM Magnesium Chloride, 10 mM Glucose) agents diluted with LNHBSS are added to each well. (Varying concentrations of test agent may be used). The activation/radiolabel mixture contains aconitine (Sigma) to increase the percentage of time that the sodium channels are open, and ^14C-guanidine hydrochloride (ARC) to measure flux through the voltage-gated sodium channels.
After loading the cells with test agent and activation/radiolabel mixture, the Scintiplates are incubated at ambient temperature. Following the incubation, the Scintplates are extensively washed with LNHBSS supplemented with guanidine (Sigma). The Scintiplates are dried and then counted using a Wallac MicroBeta TriLux (Perkin-Elmer Life Sciences). The ability of the test agent to block sodium channel activity is determined by comparing the amount of ^14C-guanidine present inside the cells expressing the different sodium channels.
The IC50 value of a test agent for a specific sodium channel may be determined using the above general method. […] Typically the mid-point concentration of test agent is set at 1 μM, and sequential concentrations of half dilutions greater or smaller are applied (e.g. 0.5 μM; 5 μM and 0.25 μM; 10 μM and 0.125 μM; 20 μM etc.). The IC50 curve is calculated using the 4 Parameter Logistic Model or Sigmoidal Dose-Response Model formula (fit=(A+((B−A)/(1+((C/x)^D)))).
The fold selectivity, factor of selectivity or multiple of selectivity, is calculated by dividing the IC50 value of the test sodium channel by the reference sodium channel, for example, NaV1.5. […]

CYP3A4 = biological target: T1, CYP3A4 (Homo sapiens, UniProt P08684); test: Cytochrome P450 (CYP450) inhibition assay, fluorescence-based; format: in vitro ADME; conditions: recombinant CYP3A4 (P450 Baculosomes), probe Vivid substrate (fluorogenic)
T1 construct: purchased Invitrogen Corporation (Vivid CYP450 Screening Kit)
T1 sequence (P08684 whole entry): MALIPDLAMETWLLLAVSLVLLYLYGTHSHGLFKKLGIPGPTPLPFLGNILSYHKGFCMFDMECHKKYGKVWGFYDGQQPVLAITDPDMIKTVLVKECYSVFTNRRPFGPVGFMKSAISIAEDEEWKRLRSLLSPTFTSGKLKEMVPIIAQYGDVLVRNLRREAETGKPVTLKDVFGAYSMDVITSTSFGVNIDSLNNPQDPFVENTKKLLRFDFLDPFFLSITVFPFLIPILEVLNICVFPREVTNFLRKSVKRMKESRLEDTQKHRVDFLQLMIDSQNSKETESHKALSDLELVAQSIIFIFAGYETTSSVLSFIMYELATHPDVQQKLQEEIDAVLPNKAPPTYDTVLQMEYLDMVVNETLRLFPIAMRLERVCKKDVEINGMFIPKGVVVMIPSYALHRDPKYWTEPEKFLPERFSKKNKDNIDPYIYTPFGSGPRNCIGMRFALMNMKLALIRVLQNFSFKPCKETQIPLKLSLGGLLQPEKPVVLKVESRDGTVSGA

| SMILES | melting point | IC50 (sodium channel) | inhibition at 10 µM (CYP3A4) |
| --- | --- | --- | --- |
| Cl.O=C1N(Cc2ccc(N[C@@H]3CCNC3)cc2)c2ccccc2C12COc1cc3c(cc12)OCO3 (stereo partly drawn) | 190 to 195 °C |  |  |
| CN(C)CCOc1ccc2c(c1)OCC21C(=O)Nc2ccccc21 (stereo not drawn) [Example 2, 6-[2-(dimethylamino)ethoxy]spiro[1-benzofuran-3,3′-indol]-2′(1′H)-one] | 95 to 97 °C | ≥ 10000 nM |  |
| CC(C)[Si](Oc1ccc2c(c1)OCC21C(=O)N(C[C@H]2CCCO2)c2ccccc21)(C(C)C)C(C)C (stereo partly drawn) [Example 4, 1′-[(2R)-tetrahydrofuran-2-ylmethyl]-6-{[tris(1-methylethyl)silyl]oxy}spiro[1-benzofuran-3,3′-indol]-2′(1′H)-one] |  | 100 to 1000 nM |  |
| CC(C)(C)OC(=O)N1CC[C@@H](Nc2ccc(CN3C(=O)C4(COc5cc6c(cc54)OCO6)c4ccccc43)cc2)C1 (stereo partly drawn) [Example 5, tert-butyl (3R)-3-({4-[(2′-oxospiro[furo[2,3-f][1,3]benzodioxole-7,3′-indol]-1′(2′H)-yl)methyl]phenyl}-amino)pyrrolidine-1-carboxylate] | 115 to 118 °C |  |  |
| O=C1N(Cc2ccc(N[C@@H]3CCNC3)cc2)c2ccccc2C12COc1cc3c(cc12)OCO3 (stereo partly drawn) [Example 6, 1′-{4-[(3R)-pyrrolidin-3-ylamino]benzyl}spiro[furo[2,3-f][1,3]benzodioxole-7,3′-indol]-2′(1′H)-one] | 118 to 121 °C |  |  |
| CC(=O)N1CCC[C@H]1CN1C(=O)C2(COc3cc4c(cc32)CCO4)c2ccccc21 (stereo partly drawn) [Example 8, 1′-{[(2S)-1-acetylpyrrolidin-2-yl]methyl}-5,6-dihydrospiro[benzo[1,2-b:5,4-b′]difuran-3,3′-indol]-2′(1′H)-one] | 103 to 108 °C | 1000 to 10000 nM | > 50% |
| N/C(CN1C(=O)C2(COc3cc4c(cc32)OCO4)c2c(Cl)cccc21)=N\OC(=O)C1CC1 (stereo not drawn) [Example 11, 2-(4′-chloro-2′-oxospiro[furo[2,3-f][1,3]benzodioxole-7,3′-indol]-1′(2′H)-yl)-N′-[(cyclopropylcarbonyl)oxy]ethanimidamide] |  | 100 to 1000 nM | > 50% |
| NC(=O)COc1cccc(CN2C(=O)C3(COc4cc5c(cc43)CCO5)c3ccccc32)c1 (stereo not drawn) [Example 13, 2-{3-[(2-oxo-5,6-dihydrospiro[benzo[1,2-b:5,4-b]difuran-3,3-indol]-1(2H)-yl)methyl]phenoxy}acetamide] | 109 to 111 °C | 1 to 100 nM | > 50% |
| O=C(O)COc1cccc(CN2C(=O)C3(COc4cc5c(cc43)CCO5)c3ccccc32)c1 (stereo not drawn) [Example 15, {3-[(2′-oxo-5,6-dihydrospiro[benzo[1,2-b:5,4-b′]difuran-3,3′-indol]-1′(2′H)-yl)methyl]phenoxy}acetic acid] | 95 to 96 °C | 1000 to 10000 nM | < 50% |
| CNC(=O)COc1cccc(CN2C(=O)C3(COc4cc5c(cc43)CCO5)c3ccccc32)c1 (stereo not drawn) [Example 16, N-methyl-2-{3-[(2′-oxo-5,6-dihydrospiro[benzo[1,2-b:5,4-b′]difuran-3,3′-indol]-1′(2′H)-yl)methyl]phenoxy}acetamide] | 175 to 176 °C | 1 to 100 nM | > 50% |
| C[S+]([O-])c1ccc(CN2C(=O)C3(COc4cc5c(cc43)CCO5)c3ccccc32)cc1 (stereo not drawn) [Example 17, 1′-[4-(methylsulfinyl)benzyl]-5,6-dihydrospiro[benzo[1,2-b:5,4-b′]difuran-3,3′-indol]-2′(1′H)-one] |  | 100 to 1000 nM | > 50% |
| CS(=O)(=O)N(c1ccc2c(c1)OCC21C(=O)N(C[C@H]2CCCO2)c2ccccc21)S(C)(=O)=O (stereo partly drawn) [Example 18, N-(methylsulfonyl)-N-{2′-oxo-1′-[(2R)-tetrahydrofuran-2-ylmethyl]-1′,2′-dihydrospiro[1-benzofuran-3,3′-indol]-6-yl}methanesulfonamide] |  | 1000 to 10000 nM | < 50% |
| CC(N)COc1ccc2c(c1)OCC21C(=O)N(C[C@H]2CCCO2)c2ccccc21.Cl (stereo partly drawn) [Example 20, 6-(2-aminopropoxy)-1′-[(2R)-tetrahydrofuran-2-ylmethyl]spiro[1-benzofuran-3,3′-indol]-2′(1′H)-one hydrochloride] | 120 to 130 °C | 1000 to 10000 nM | < 50% |
| CN(C)CCOc1ccc2c(c1)OCC21C(=O)N(C[C@H]2CCCO2)c2ccccc21 (stereo partly drawn) [Example 21, 6-[2-(dimethylamino)ethoxy]-1′-[(2R)-tetrahydrofuran-2-ylmethyl]spiro[1-benzofuran-3,3′-indol]-2′(1′H)-one] |  | 1000 to 10000 nM | < 50% |
| O=C1N(C[C@H]2CCCO2)c2ccccc2C12COc1cc3c(cc12)C(=NO)CO3 (stereo partly drawn) [Example 24, 1′-[(2R)-tetrahydrofuran-2-ylmethyl]spiro[benzo[1,2-b:5,4-b′]difuran-3,3′-indole]-2′,5(1′H,6H)-dione 5-oxime] | 82 to 100 °C | 1000 to 10000 nM | > 50% |
| N/C(CN1C(=O)C2(COc3cc4c(cc32)OCO4)c2ccccc21)=N\O (stereo not drawn) [Example 25, (1Z)-N′-hydroxy-2-(2′-oxospiro[furo[2,3-f][1,3]benzodioxole-7,3′-indol]-1′(2′H)-yl)ethanimidamide] | 235 to 238 °C | 100 to 1000 nM | > 50% |

Results, then the compound that gave them:

| melting point | IC50 (sodium channel) | inhibition at 10 µM (CYP3A4) | SMILES |
| --- | --- | --- | --- |
| 215 to 216 °C | 1 to 100 nM | < 50% | NC(=O)COc1ccc(CN2C(=O)C3(COc4cc5c(cc43)CCO5)c3ccccc32)cc1 (stereo not drawn) [Example 13.1, 2-{4-[(2′-oxo-5,6-dihydrospiro[benzo[1,2-b:5,4-b′]difuran-3,3′-indol]-1′(2′H)-yl)methyl]phenoxy}acetamide] |
| 124 to 125 °C | 1 to 100 nM | > 50% | COCCOc1ccc(CN2C(=O)C3(COc4cc5c(cc43)OCCO5)c3ccccc32)cc1 (stereo not drawn) [Example 13.3, 1′-[4-(2-methoxyethoxy)benzyl]-2,3-dihydrospiro[furo[2,3-g][1,4]benzodioxine-8,3′-indol]-2′(1′H)-one] |
| 158 to 159 °C | 1 to 100 nM | < 50% | CCOC(=O)COc1ccc(CN2C(=O)C3(COc4cc5c(cc43)CCO5)c3ccccc32)cc1 (stereo not drawn) [Example 14.1, ethyl {4-[(2′-oxo-5,6-dihydrospiro[benzo[1,2-b:5,4-b′]difuran-3,3′-indol]-1′(2′H)-yl)methyl]phenoxy}acetate] |
| 59 to 61 °C | 1 to 100 nM | < 50% | CCOC(=O)COc1ccc(CN2C(=O)C3(COc4cc5c(cc43)OCCO5)c3ccccc32)cc1 (stereo not drawn) [Example 14.2, ethyl {4-[(2′-oxo-2,3-dihydrospiro[furo[2,3-g][1,4]benzodioxine-8,3′-indol]-1′(2′H)-yl)methyl]phenoxy}acetate] |
| 265 to 266 °C |  | < 50% | O=C(O)COc1ccc(CN2C(=O)C3(COc4cc5c(cc43)CCO5)c3ccccc32)cc1 (stereo not drawn) [Example 15.1, {4-[(2′-oxo-5,6-dihydrospiro[benzo[1,2-b:5,4-b′]difuran-3,3′-indol]-1′(2′H)-yl)methyl]phenoxy}acetic acid] |
| 223 to 224 °C |  | < 50% | O=C(O)COc1ccc(CN2C(=O)C3(COc4cc5c(cc43)OCCO5)c3ccccc32)cc1 (stereo not drawn) [Example 15.2, {4-[(2′-oxo-2,3-dihydrospiro[furo[2,3-g][1,4]benzodioxine-8,3′-indol]-1′(2′H)-yl)methyl]phenoxy}acetic acid] |
